What is called IC50 is the point on the concentration scale where inhibition reaches its midpoint.

Values after ≈ are worked out from the molar mass of the structure shown. Counter-ions that a name gives are not always drawn.

Results on 3 molecules are retold here after patent publication US5574026A, “Methods for inhibiting angiogenesis proliferation of endothelial or tumor cells and tumor growth” (American Cyanamid Company, priority 1994, dated 1996).

One data set deals with Human Tumor cell lines. Kind of data set: Antiproliferative activity in panel of human tumor cell lines (average / panel as a whole), PROTOCOL 1 and PROTOCOL 2. The class given is cell-based. As to conditions: for IC50: Homo sapiens, average over the tumor cell lines tested. As for the experimental part: (§1) The antiproliferative activity of the compounds of Formula I in an Adult Bovine Aortic Endothelial (ABAE) cell line and in Human Tumor cells lines is evaluated in three similar assays that measure growth inhibition. The assays are identified as follows:
(§2) PROTOCOLS 1, 2, and 3 are described in greater detail hereinbelow. In general, according to PROTOCOLS 1 and 2, the target ABAE and/or Human Tumor cells are exposed to the compounds of Formula I for 48 hours. PROTOCOL 3 exposes ABAE cells to the compounds for 4 days. A detailed description of the Protocols is as follows:
(§3) Antiproliferative Activity in Human Tumor Cell Lines
(§4) The antiproliferative activity of the compounds of Formula I of the present invention is evaluated in a panel comprised of human tumor cell lines. The human tumor cell lines are from
(§5) 2) Colon tumors: MIP, CACO2, and SW620.
(§6) All cell lines are maintained in log phase in RPMI 1640 media, supplemented with 5% fetal calf serum, penicillin/streptomycin and 2 mM L-glutamine. Cultures are renewed after 20 passages with cells from a fresh stock of batch-frozen early passage cells. Cell lines are routinely checked for mycoplasma contamination (Genprobe). In a laminar flow hood, cells (1-5×10^4) are plated into 96-well microtiter plates in a volume of 0.1 ml/well with a bulk microtiter dispenser (Denley). […] At this concentration, dimethylsulfoxide has no effect on cell growth. Compounds are added using a Tomtec dispenser which simultaneously dispenses from one 96-well plate, containing the drug dilutions, to the plates containing the cells. After two days of continuous drug exposure, 50% cold trichloroacetic acid (TCA) is added to 10% final concentration to fix the cells, and after 60 minutes at 4° C., the TCA is aspirated and the plates are washed 5 times with deionized water using a microtiter plate washer. The number of cells on the plate are quantitated using a protein dye-binding assay (Monks et al., 1991). A 0.4% solution of the dye, sulforhodamine B, in […] is added to the plates, and the plates are washed 5 times with 1% glacial acetic acid using the automatic plate washed. The bound stain is solubilized with 0.1 ml of 10 mMTris base. The optical densities are read from an automatic spectrophotometric plate reader (Dynatech) directly to a main frame computer (VAX 8600).
(§7) Positive controls, that include standard chemotherapeutic drugs (i.e., adriamycin, cisplatin, etc.), are included in every experiment.
(§8) Background optical density measurements (complete media--cells, and complete media+drug-cells) are automatically subtracted from the appropriate control and test wells. Mean values and standard errors are determined from duplicate wells. A measure is also made of the optical density at time when the drugs are added. The number of cells after treatment (P), as % of control, is calculated for every concentration of drug, as follows: [formula] wherein: T is optical density measurement for treated cells after 48 hours;
(§9) C is optical density measurement for untreated cells after 48 hours;
(§10) Co is optical density measurement for cells at the time of drug addition.
(§11) IC50 of Growth inhibition is calculated from the sets of P values using the RS-1 data package (BBN Software).
(§12) Antiproliferative Activity in Human Tumor and Adult Bovine Aortic Endothelial Cell Lines (ABAE)
(§13) The antiproliferative activity of the compounds of Formula I is evaluated in a panel comprised of human tumor cell lines as listed in Protocol 1 as well as an adult bovine aortic endothelial cell line (ABAE). This assay is a modification of PROTOCOL 1. The modifications include:
(§14) 1) each concentration for each compound is tested in a single well;
(§15) 2) compounds are tested at 20, 4, 0.8, 0.16 microgram/ml and additionally in some experiments at 100 and 0.32 microgram/ml;
(§16) 3) samples are pipetted into a 96-well plate for each of the cell lines by a Beckman Biomek 1000 SL robot; […]

The test system of the next data set is SW620. The data set can be described thus: Antiproliferative activity in human tumor cell lines, PROTOCOL 1 and PROTOCOL 2. The class given is cell-based. The following applies: SW-620, colon tumor cell line SW620, 48 hours, read-out: IC50. The procedure:
as §1, §2, §3, §4, §5, §6, §7, §8, §9, §10, §11, §12, §13, §14, §15, §16

A further data set relates to A2780/DDP. The description is as above. In kind it is cell-based. The following applies: ovarian tumor cell line /DDP, 48 hours, read-out: IC50. As for the experimental part: (§17) The assays are identified as follows: PROTOCOLS 1, 2, and 3 are described in greater detail hereinbelow. In general, according to PROTOCOLS 1 and 2, the target ABAE and/or Human Tumor cells are exposed to the compounds of Formula I for 48 hours. PROTOCOL 3 exposes ABAE cells to the compounds for 4 days. A detailed description of the Protocols is as follows: Antiproliferative Activity in Human Tumor Cell Lines The antiproliferative activity of the compounds of Formula I of the present invention is evaluated in a panel comprised of human tumor cell lines. […] Cultures are renewed after 20 passages with cells from a fresh stock of batch-frozen early passage cells. Cell lines are routinely checked for mycoplasma contamination (Genprobe). In a laminar flow hood, cells (1-5×10^4) are plated into 96-well microtiter plates in a volume of 0.1 ml/well with a bulk microtiter dispenser (Denley). […] Compounds are added using a Tomtec dispenser which simultaneously dispenses from one 96-well plate, containing the drug dilutions, to the plates containing the cells. After two days of continuous drug exposure, 50% cold trichloroacetic acid (TCA) is added to 10% final concentration to fix the cells, and after 60 minutes at 4° C., the TCA is aspirated and the plates are washed 5 times with deionized water using a microtiter plate washer. […] A 0.4% solution of the dye, sulforhodamine B, in glacial acetic acid is added to the plates, and the plates are washed 5 times with 1% glacial acetic acid using the automatic plate washed. The bound stain is solubilized with 0.1 ml of 10 mMTris base. The optical densities are read from an automatic spectrophotometric plate reader (Dynatech) directly to a main frame computer (VAX 8600). Positive controls, that include standard chemotherapeutic drugs (i.e., adriamycin, cisplatin, etc.), are included in every experiment. Background optical density measurements (complete media--cells, and complete media+drug-cells) are automatically subtracted from the appropriate control and test wells. Mean values and standard errors are determined from duplicate wells. A measure is also made of the optical density at time when the drugs are added. The number of cells after treatment (P), as % of control, is calculated for every concentration of drug, as follows: [formula] wherein: T is optical density measurement for treated cells after 48 hours; C is optical density measurement for untreated cells after 48 hours; Co is optical density measurement for cells at the time of drug addition. IC50 of Growth inhibition is calculated from the sets of P values using the RS-1 data package (BBN Software). Antiproliferative Activity in Human Tumor and Adult Bovine Aortic Endothelial Cell Lines (ABAE) The antiproliferative activity of the compounds of Formula I is evaluated in a panel comprised of human tumor cell lines as listed in Protocol 1 as well as an adult bovine aortic endothelial cell line (ABAE). This assay is a modification of PROTOCOL 1.

Another data set concerns A2780S. Described as above. In kind it is cell-based. As to conditions: ovarian tumor cell line A2780S, 48 hours, read-out: IC50. The procedure: as §17
The subject of the next data set is HTB 161. The data set is described as above. The following applies: HTB 161, 48 hours. The class given is cell-based. As for the experimental part: as §17
The test system of the next data set is tumor. The following applies: Teicher et al; used in conjunction with cancer chemotherapy or radiation therapy; cited from earlier work.

Take `CN(C)[C@@H]1C(O)=C(C(N)=O)C(=O)[C@@]2(O)C(O)=C3C(=O)c4c(O)ccc(Br)c4CC3CC12` (stereo partly drawn) [Example 8, [4S-(4α,12aα)]-7-Bromo-4-(dimethylamino)-1,4,4a,5,5a,-6,11,12a-octahydro-3,10,12,12a-tetrahydroxy-1,11-dioxo-2-naphthacenecarboxamide sulfate]: the “inhibition of cell growth at the highest concentrations” value in the data set with Human Tumor cell lines (FIG. 2, 6 human tumor cell lines, in words) is “no 100% inhibition of cell growth”. Besides, the IC50 with Human Tumor cell lines came to 1.3 µg/mL; in the data set with SW620, 1.4 µg/mL; with A2780/DDP, 0.6 µg/mL; in the data set with A2780S, 0.6 µg/mL; in the data set on HTB 161, 0.6 µg/mL. Moreover, the dead floating cells entry with Human Tumor cell lines (even at the highest concentration) is reported as “not observed”.

Turning to `CN(C)[C@@H]1C(O)=C(C(N)=O)C(=O)[C@@]2(O)C(O)=C3C(=O)c4c(O)ccc(I)c4CC3CC12` (stereo partly drawn) [Example 10, [4S-(4α,12aα)]-4-(Dimethylamino)-4,4,4a,5,5a,6,11,12a-octahydro-3,10,12,12a-tetrahydroxy-7-iodo-1,11-dioxo-2-naphthacenecarboxamide], the IC50 in the data set with Human Tumor cell lines is 1.7 µg/mL (≈ 3.15 µM); in the data set with SW620, 1.2 µg/mL (≈ 2.22 µM); in the data set on A2780/DDP it was 4 µg/mL (≈ 7.4 µM); in the data set with A2780S it was 0.7 µg/mL (≈ 1.3 µM); with HTB 161 it was 0.7 µg/mL (≈ 1.3 µM).

Take `CN(C)c1ccc(O)c2c1C[C@H]1C[C@H]3[C@H](N(C)C)C(O)=C(C(N)=O)C(=O)[C@@]3(O)C(O)=C1C2=O` [Minocycline, reference compound]: in the data set with tumor, the “number of metastases with chemotherapy or radiation therapy” value is “the number of metastases is reduced” and the “tumor growth with chemotherapy or radiation therapy” value is given as “tumor growth is decreased”. In addition, the half-maximal inhibitory concentration (IC50) in the data set on A2780/DDP came out at 6.1 µg/mL (≈ 13.3 µM).
